Measurements from patent US20240252650A1, “LIPID COMPOUNDS AND LIPID NANOPARTICLE COMPOSITIONS” (SUZHOU ABOGEN BIOSCIENCES CO., LTD., priority 2021, published 2024).

What was measured:
Assay type in all cases: physicochemical
[1] = Lipid nanoparticle size and polydispersity by dynamic light scattering (Malvern Zetasizer Nano ZS); settings: LNP encapsulating hEPO mRNA; table of Example 16
Experimental: (§1) Briefly, a cationic lipid provided herein, DSPC, cholesterol, and PEG-lipid were solubilized in ethanol at a molar ratio of 50:10:38.5:1.5, and mRNA were diluted in 10 to 50 mM citrate buffer, pH=4. The LNPs were prepared at a total lipid to mRNA weight ratio of approximately 10:1 to 30:1 by mixing the ethanolic lipid solution with the aqueous mRNA solution at a volume ratio of 1:3 using a microfluidic apparatus, total flow rate ranging from 9-30 mL/min. Ethanol were thereby removed and replaced by DPBS using dialysis. Finally, the lipid nanoparticles were filtered through a 0.2 μm sterile filter.
(§2) Lipid nanoparticle size were determined by dynamic light scattering using a Malvern Zetasizer Nano ZS (Malvern UK) using a 173° backscatter detection mode. The encapsulation efficiency of lipid nanoparticles were determined using a Quant-it Ribogreen RNA quantification assay kit (Thermo Fisher Scientific, UK) according to the manufacturer's instructions.

[2] = Encapsulation efficiency of lipid nanoparticles (Quant-it Ribogreen RNA quantification assay); settings: LNP encapsulating hEPO mRNA; table of Example 16
Experimental: as §1, §2

[3] = Apparent pKa of LNP formulations by TNS fluorescence assay; settings: LNP cationic lipid/DSPC/cholesterol/DMG-PEG 50/10/38.5/1.5 mol %, table of Example 16
Experimental: As reported in literature, the apparent pKa of LNP formulations correlates with the delivery efficiency of LNPs for nucleic acids in vivo. The apparent pKa of each formulation was determined using an assay based on fluorescence of 2-(p-toluidino)-6-napthalene sulfonic acid (TNS). LNP formulations comprising of cationic lipid/DSPC/cholesterol/DMG-PEG (50/10/38.5/1.5 mol %) in PBS were prepared as described above. TNS was prepared as a 300 uM stock solution in distilled water. LNP formulations were diluted to 0.1 mg/ml total lipid in 3 mL of buffered solutions containing 50 mM sodium citrate, 50 mM sodium phosphate, 50 mM sodium borate, and 30 mM sodium chloride where the pH ranged from 3 to 9. An aliquot of the TNS solution was added to give a final concentration of 0.1 mg/ml and following vortex mixing fluorescence intensity was measured at room temperature in a Molecular Devices Spectramax iD3 spectrometer using excitation and mission wavelengths of 325 nm and 435 nm. A sigmoidal best fit analysis was applied to the fluorescence data and the pKa value was measured as the pH giving rise to half-maximal fluorescent intensity.

SMILES | polydispersity [1] | size (nm) [1] [nm] | Encapsulation Efficiency [2] [%] | Apparant Pka [3]
CCCCC/C=C\C/C=C\CCCCCCCC(=O)OCC(COC(=O)CCCC(COC(=O)CCCCCCC)COC(=O)CCCCCCC)COC(=O)CCN(CCO)C1CCC1 (stereo not drawn) [Compound 1] | 0.047 | 77.60 | 89.48 | 5.56
CCCCC/C=C\C/C=C\CCCCCCCC(=O)OCC(COC(=O)CCOC(COC(=O)CCCCCCC)COC(=O)CCCCCCC)COC(=O)OCCCN(CC)CC (stereo not drawn) [Compound 3] | 0.121 | 88.27 | 89.46 | 6.649
CCCCC/C=C\C/C=C\CCCCCCCC(=O)OCC(COC(=O)CCCCN(CCO)C1CCC1)COC(=O)CCCC(COC(=O)CCCCCCC)COC(=O)CCCCCCC (stereo not drawn) [Compound 4] | 0.090 | 93.73 | 91.42 | 6.881
CCCCC/C=C\C/C=C\CCCCCCCC(=O)OCC(COC(=O)CCCC(COC(=O)CCCCCCC)COC(=O)CCCCCCC)COC(=O)OCCN(CCO)C1CCCCC1 (stereo not drawn) [Compound 8] | 0.049 | 63.20 | 85.90 | –
CCCCC/C=C\C/C=C\CCCCCCCC(=O)OCC(COC(=O)CCCC(COC(=O)CCCCCCC)COC(=O)CCCCCCC)COC(=O)OCCN(CCO)C1CCC1 (stereo not drawn) [Compound 12] | 0.096 | 53.68 | 81.79 | –
CCCCCCCCCCCC(=O)OCC(COC(=O)CCCC(COC(=O)CCCCCCC)COC(=O)CCCCCCC)COC(=O)CCN(CCO)C1CCC1 (stereo not drawn) [Compound 15] | 0.043 | 90.47 | 93.04 | –
CCCCCCCCCCCCC(=O)OCC(COC(=O)CCCCN(CCO)C1CCC1)COC(=O)CCCC(COC(=O)CCCCCCC)COC(=O)CCCCCCC (stereo not drawn) [Compound 18] | 0.031 | 84.24 | 78.25 | 6.915
CCCCC/C=C\C/C=C\CCCCCCCC(=O)OCC(COC(=O)CCCC(COC(=O)CCCCCCC)COC(=O)CCCCCCC)COC(=O)OCCN(CCO)C1CCCC1 (stereo not drawn) [Compound 33] | 0.053 | 71.21 | 83.76 | –
CCCCC/C=C\C/C=C\CCCCCCCC(=O)OCC(COC(=O)CCCC(COC(=O)CCCCCCC)COC(=O)CCCCCCC)COC(=O)OCCCN(CCO)C1CCC1 (stereo not drawn) [Compound 34] | 0.049 | 82.63 | 89.00 | 6.307
CCCCC/C=C\C/C=C\CCCCCCCC(=O)OCC(COC(=O)CCCCCCN(CCO)C1CCC1)COC(=O)CCCC(COC(=O)CCCCCCC)COC(=O)CCCCCCC (stereo not drawn) [Compound 42] | 0.077 | 96.94 | 92.04 | 6.879
CCCCC/C=C\C/C=C\CCCCCCCC(=O)OCC(COC(=O)CCCCCCCN(CCO)C1CCC1)COC(=O)CCCC(COC(=O)CCCCCCC)COC(=O)CCCCCCC (stereo not drawn) [Compound 43] | 0.04 | 95.19 | 93.46 | 6.766
CCCCCCCCC(=O)OCC(COC(=O)CCCCCN(CCO)C1CCC1)COC(=O)CCCC(COC(=O)CCCCCCC)COC(=O)CCCCCCC (stereo not drawn) [Compound 45] | 0.067 | 144.2 | 90.08 | 6.965
CCCCCCCCC(=O)OCC(COC(=O)CCCCCCCN(CCO)C1CCC1)COC(=O)CCCC(COC(=O)CCCCCCC)COC(=O)CCCCCCC (stereo not drawn) [Compound 46] | 0.069 | 158.9 | 89.87 | 7.088
CCCCCCCCCCC(=O)OCC(COC(=O)CCCCN(CCO)C1CCC1)COC(=O)CCCC(COC(=O)CCCCCCC)COC(=O)CCCCCCC (stereo not drawn) [Compound 48] | 0.087 | 108.4 | 93.21 | 7.229
CCCCCCCCCCC(=O)OCC(COC(=O)CCCCCN(CCO)C1CCC1)COC(=O)CCCC(COC(=O)CCCCCCC)COC(=O)CCCCCCC (stereo not drawn) [Compound 49] | 0.086 | 100.8 | 89.09 | 7.287
CCCCCCCCCCC(=O)OCC(COC(=O)CCCCCCN(CCO)C1CCC1)COC(=O)CCCC(COC(=O)CCCCCCC)COC(=O)CCCCCCC (stereo not drawn) [Compound 50] | 0.158 | 89.62 | 91.68 | 7.175
CCCCCCCCC(=O)OCC(COC(=O)CCCCCCN(CCO)C1CCC1)COC(=O)CCCC(COC(=O)CCCCCCC)COC(=O)CCCCCCC (stereo not drawn) [Compound 57] | 0.079 | 117 | 84.36 | 7.016
CCCCCCCCCC(=O)OCC(COC(=O)CCCCCN(CCO)C1CCC1)COC(=O)CCCC(COC(=O)CCCCCCC)COC(=O)CCCCCCC (stereo not drawn) [Compound 58] | 0.129 | 104.3 | 77.87 | 6.97
CCCCCCCCCCCCC(=O)OCC(COC(=O)CCCCCCN(CCO)C1CCC1)COC(=O)CCCC(COC(=O)CCCCCCC)COC(=O)CCCCCCC (stereo not drawn) [Compound 64] | 0.196 | 105.4 | 87.35 | 6.837
C=CCN(CCO)CCCCC(=O)OCC(COC(=O)CCCCCCCCCCCCCCCCC)COC(=O)CCCC(COC(=O)CCCCCCC)COC(=O)CCCCCCC (stereo not drawn) [Compound 84] | 0.069 | 84.76 | 92.56 | 6.597
CCCCC/C=C\C/C=C\CCCCCCCC(=O)OCC(COC(=O)CCCC(COC(=O)CCCCCCC)COC(=O)CCCCCCC)COC(=O)OCCCN(CCC)CCO (stereo not drawn) [Compound 87] | 0.034 | 99.16 | 93.62 | 6.384
CCCCCCCC(=O)OCC(CCCC(=O)OCC(COC(=O)CCCC(COC(=O)CCCCCCC)COC(=O)CCCCCCC)COC(=O)OCCN(C)CCO)COC(=O)CCCCCCC [Compound 91] | 0.023 | 72.66 | 86.02 | 5.811
CCCCCCCCCCCCCCCCCC(=O)OCC(COC(=O)CCCCN(CCC)CCO)COC(=O)CCC(=O)OCC(COC(=O)CCCCCCC)COC(=O)CCCCCCC (stereo not drawn) [Compound 98] | 0.207 | 102.92 | 83.41 | 7.14
CCCCCCCCC(CCCCCCCC)COC(=O)CCOCC(COCCC(=O)OCC(CCCCCCCC)CCCCCCCC)COC(=O)CCCCN(CCO)C1CCC1 [Compound 100] | 0.02588 | 67.27 | 91.54 | 6.535
CCCCCCCCOC(=O)CCCCCCCC(=O)OCC(COC(=O)CCCCN(CCO)C1CCCCC1)COC(=O)CCCC(COC(=O)CCCCCCC)COC(=O)CCCCCCC (stereo not drawn) [Compound 104] | 0.02612 | 98.52 | 89.87 | 6.707
CCCCC/C=C\C/C=C\CCCCCCCC(=O)OCC(COC(=O)CCCC(COC(=O)CCCCCCC)COC(=O)CCCCCCC)COC(=O)OCCCN(CCO)CCCC (stereo not drawn) [Compound 105] | 0.06244 | 80.11 | 89.77 | 6.262
CCCCC/C=C\C/C=C\CCCCCCCC(=O)OCC(COC(=O)CCCC(COC(=O)CCCCCCC)COC(=O)CCCCCCC)COC(=O)OCCCN(CCO)C1CCCCC1 (stereo not drawn) [Compound 106] | 0.01154 | 77.71 | 77.94 | 6.091
CCCCC/C=C\C/C=C\CCCCCCCC(=O)OCC(COC(=O)CCCC(COC(=O)CCCCCCC)COC(=O)CCCCCCC)OC(=O)CCCCN(CCO)C1CCCCC1 (stereo not drawn) [Compound 107] | 0.04979 | 66.11 | 89.61 | 6.441
